What was measured:
Type in all cases: in vivo, Arabidopsis thaliana
[1] = system: transgenic T1 Arabidopsis plants, Scenedesmus HPPD alanine 318 exchanged by glycine and leucine 350 substituted with methionine; assay: T1 spray application; conditions: FIG. 3; pictures 8 days after treatment
Protocol: (§1) Wildtype plants were sprayed in parallel at each application rate (two lower pots below dashed line) whereas T1 plants are represented by the five upper pots. Pictures were taken 8 days after treatment.
(§2) Transgenic T1 Arabidopsis plants were sprayed with the indicated amount of HPPD inhibiting herbicide. The T1 spray application is a fast method to evaluate the potential of transgenic traits even though a segregating population and only one event of respective traits is tested.

[2] = system: transgenic T1 Arabidopsis plants, Scenedesmus HPPD phenylalanine 363 exchanged by isoleucine; assay: T1 spray application; conditions: FIG. 3; highest application rate
Protocol: as §1, §2

[3] = system: transgenic Arabidopsis plants (T2) SoHPPD Q317H (short); assay: Greenhouse spray test, injury evaluation; conditions: for Injury: 14 DAT
Protocol: (§3) Non-transgenic control plants were treated in parallel and pictures taken 14 days after treatment.
(§4) For post emergence treatment, the test plants are first grown to a height of 3 to 15 cm, depending on the plant habit, and only then treated with the herbicides. For this purpose, the test plants are either sown directly and grown in the same containers, or they are first grown separately and transplanted into the test containers a few days prior to treatment.
(§5) Additionally, T1 and T2 transgenic Arabidopsis plants can be tested for improved tolerance to HPPD-inhibiting herbicides in greenhouse studies. Herbicide injury scoring is done 2-3 weeks after treatment and is rated on a scale of 0 to 100%, 0% being no injury and 100% being complete death.
(§6) Transgenic T2 Arabidopsis plants were sprayed with a range of doses from 1.56-25 g/ha of different HPPD-inhibiting herbicides and injury evaluations were taken two weeks after treatment (FIG. 4). As depicted in Table 8, control plants were severely injured by all doses of herbicides applied, with at least 58% of leaf material being damaged at the lowest application rate and 100% leaf damage at the second application rate.

[4] = system: transgenic Arabidopsis plants (T2) SoHPPD F363I (short); assay: Greenhouse spray test, injury evaluation; conditions: 14 DAT
Protocol: as §3, §4, §5, §6

[5] = system: Arabidopsis overexpression line SoHPPD I455V; assay: Germination assay in 48-well plates (tolerance factor); conditions: plant growth IC50 transgenic / wildtype; mean of 5 T2 events; non-transgenic set to 1
Protocol: (§7) Tolerance to HPPD-inhibiting herbicides can also be assessed in Arabidopsis. In this case transgenic Arabidopsis thaliana plants are assayed for improved tolerance to HPPD-inhibiting herbicides in 48-well plates (germination assay). Seeds are surface sterilized by stirring for 5 min in ethanol+water (70+30 by volume), rinsing one time with ethanol+water (70+30 by volume) and two times with a sterile, deionized water. The seeds are resuspended in 0.1% agar dissolved in water (w/v). Four to five seeds per well are plated on solid nutrient medium consisting of half-strength Murashige Skoog nutrient solution, pH 5.8 (Murashige and Skoog (1962) Physiologia Plantarum 15: 473-497). Compounds are dissolved in dimethylsulfoxid (DMSO) and added to the medium prior solidification (final DMSO concentration 0.1%). Multi well plates are incubated in a growth chamber at 22° C., 75% relative humidity and 110 μmol Phot*m−2*s−1 with 14:10 h light:dark photoperiod. Growth inhibition is evaluated seven to ten days after seeding in comparison to wild type plants. Tolerance factor is calculated by dividing the plant growth IC50 value of transgenic plants containing a HPPD sequence by that of wildtype plants.

[6] = system: Arabidopsis overexpression line SoHPPD (SEQ ID NO: 2); assay: as above; conditions: plant growth IC50 transgenic / wildtype; mean of 5 T2 events; non-transgenic set to 1
Protocol: as §7

[7] = system: Arabidopsis overexpression line SoHPPD Q317H, A318G, E345Q (short); assay: as above; conditions: plant growth IC50 transgenic / wildtype; mean of 5 T2 events; non-transgenic set to 1
Protocol: as §7

[8] = system: Arabidopsis overexpression line SoHPPD_F363I (short); assay: as above; conditions: plant growth IC50 transgenic / wildtype; mean of 5 T2 events; non-transgenic set to 1
Protocol: as §7

[9] = system: Arabidopsis overexpression line SoHPPD I419V (short); assay: as above; conditions: plant growth IC50 transgenic / wildtype; mean of 5 T2 events; non-transgenic set to 1
Protocol: as §7

[10] = system: Arabidopsis overexpression line SoHPPD Q317H (short); assay: as above; conditions: plant growth IC50 transgenic / wildtype; mean of 5 T2 events; non-transgenic set to 1
Protocol: as §7

[11] = system: Arabidopsis overexpression line SoHPPD (SEQ ID NO: 4); assay: as above; conditions: plant growth IC50 transgenic / wildtype; mean of 5 T2 events; non-transgenic set to 1
Protocol: as §7

| SMILES | Injury ([3]; Event B, 1.56 g ai/ha) [%] | Injury ([3]; Event B, 6.25 g ai/ha) [%] | Injury ([3]; Event B, 25 g ai/ha) [%] | Injury ([3]; Event C, 1.56 g ai/ha) [%] | Injury ([3]; Event C, 6.25 g ai/ha) [%] | Injury ([3]; Event C, 25 g ai/ha) [%] | Injury ([4]; Event B, 1.56 g ai/ha) [%] | Injury ([4]; Event B, 6.25 g ai/ha) [%] | Injury ([4]; Event B, 25 g ai/ha) [%] | Injury ([4]; Event C, 1.56 g ai/ha) [%] | Injury ([4]; Event C, 6.25 g ai/ha) [%] | Injury ([4]; Event C, 25 g ai/ha) [%] | other results |
| --- | --- | --- | --- | --- | --- | --- | --- | --- | --- | --- | --- | --- | --- |
| Cc1c(C(=O)c2cnn(C)c2O)ccc(S(C)(=O)=O)c1C1=NOCC1 [Inhibitor 1, [3-(4,5-dihydroisoxazol-3-yl)-2-methyl-4-methylsulfonyl-phenyl]-(5-hydroxy-1-methyl-pyrazol-4-yl)methanone] | 0 | 0 | 18 | 0 | 0 | 10 | 0 | 0 | 0 | 0 | 0 | 0 | tolerance of T1 plants to spray [1]: good tolerance; tolerance of T1 plants to spray [2]: highly tolerant; Tolerance factor [5]: 7; Tolerance factor [6]: 92; Tolerance factor [7]: 50; Tolerance factor [8]: 1000; Tolerance factor [9]: 100; Tolerance factor [10]: 100; Tolerance factor [11]: 82 |
| CS(=O)(=O)c1ccc(C(=O)C2C(=O)CCCC2=O)c([N+](=O)[O-])c1 [Inhibitor 2, 2-(4-methylsulfonyl-2-nitro-benzoyl)cyclohexane-1,3-dione] | 0 | 0 | 33 | 0 | 3 | 35 | 0 | 0 | 3 | 5 | 0 | 0 | average damage (leaf injury) ([3]; 25 g ai/ha, average of events): 34% |

Reference: patent US11248234B2, “Herbicide-resistant hydroxyphenylpyruvate dioxygenases” (BASF SE, priority 2015, dated 2022)
